{"source": "paper PMC10386649", "about": "“New Acetamide-Sulfonamide-Containing Scaffolds: Antiurease Activity Screening, Structure-Activity Relationship, Kinetics Mechanism, Molecular Docking, and MD Simulation Studies” (Molecules, 2023)", "key": {"jack bean urease": {"target": "jack bean urease (Canavalia ensiformis, UniProt P07374)", "sequence (P07374 whole entry, looked up)": "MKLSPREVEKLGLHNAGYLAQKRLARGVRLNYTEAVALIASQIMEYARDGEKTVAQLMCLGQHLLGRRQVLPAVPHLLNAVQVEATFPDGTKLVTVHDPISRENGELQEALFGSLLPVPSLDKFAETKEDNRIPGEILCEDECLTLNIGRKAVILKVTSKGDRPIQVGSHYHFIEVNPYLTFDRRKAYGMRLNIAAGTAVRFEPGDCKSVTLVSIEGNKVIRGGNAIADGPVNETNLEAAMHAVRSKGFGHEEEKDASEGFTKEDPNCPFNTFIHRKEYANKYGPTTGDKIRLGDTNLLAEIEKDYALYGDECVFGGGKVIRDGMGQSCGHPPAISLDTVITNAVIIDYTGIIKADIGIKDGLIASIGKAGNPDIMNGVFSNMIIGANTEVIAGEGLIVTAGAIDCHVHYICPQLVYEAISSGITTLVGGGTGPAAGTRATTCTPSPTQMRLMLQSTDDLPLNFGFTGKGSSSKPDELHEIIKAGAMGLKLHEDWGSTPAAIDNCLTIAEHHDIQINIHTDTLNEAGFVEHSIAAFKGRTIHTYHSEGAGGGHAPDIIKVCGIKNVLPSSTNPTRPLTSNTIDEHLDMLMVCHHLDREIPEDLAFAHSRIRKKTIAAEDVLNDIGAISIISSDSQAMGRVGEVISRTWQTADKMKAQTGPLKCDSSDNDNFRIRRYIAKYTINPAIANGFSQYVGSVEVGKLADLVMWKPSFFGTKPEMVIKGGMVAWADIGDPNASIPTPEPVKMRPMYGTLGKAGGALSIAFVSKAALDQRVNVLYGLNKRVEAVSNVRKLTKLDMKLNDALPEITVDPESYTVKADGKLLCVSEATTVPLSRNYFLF", "test": "biochemical", "format": "biochemical", "conditions": "for % Inhibition (urease): value in parentheses beside IC50; for urease inhibition (in words): qualitative statement", "method": "Briefly, DMSO was used to dissolve the synthesized conjugates (inhibitors, 250–0.49 µM) and the reference urease inhibitor (thiourea). Each falcon tube contained the respective inhibitor (20 µL), buffer (K2HPO4, 100 µL, 50 mM, pH = 6.8), and jack bean urease (20 µL); each tube was mixed well; and the mixtures were incubated for 30 min at 37 °C. Each tube received 400 µL of urea (20 mM) as a substrate, which was then incubated for 10 min at the same temperature. Afterward, each tube received 400 µL of phenol reagent and 750 µL of alkali reagent containing 0.1% active chlorine and was left at 37 °C for 50 min. Following the use of a spectrophotometer (Labdex, LX210DS, London, UK) to measure absorbance of the mixture in each tube at 595 nm, Equation (1) below was used to compute the percentage of urease inhibition: (1) % Urease inhibition=1−T/C×100 where, T and C are the absorbance of each well containing inhibitor and blank, respectively. The results are presented as mean ± SEM. Using a regression equation where 50% inhibition was seen, the IC50 values of each inhibitor were determined."}, "urease": {"target": "urease (Canavalia ensiformis, UniProt P07374)", "sequence (P07374 whole entry, looked up)": "as above", "test": "biochemical", "format": "biochemical, jack bean", "conditions": "for Mode of Inhibition: Lineweaver–Burk plot, inhibitor 0–20 µM, urea 0.5–4.0 mM; for Vmax (app): intercept, the maximum rate at 20 µM of inhibitor concentration", "method": "The kinetics studies were performed by using five different concentrations (0.0, 5.0, 10.0, 15.0, and 20.0 µM) of each conjugate while using four different concentrations of urea (0.5, 1.0, 2.0, and 4.0) as substrate.\nThe Lineweaver–Burk plot is a powerful tool for analyzing enzyme kinetics and determining the mode of inhibition of an enzyme by a particular conjugate. […] In a Lineweaver–Burk plot, competitive inhibition is characterized by a change in the slope of the line (Km, also called the Michaelis constant), whereas the intercept remains the same (Vmax, the maximum rate). […] The inhibition constant (Ki) value of each conjugate was also calculated by plotting the slope of each line vs. different concentrations of each conjugate, also called secondary Lineweaver–Burk plots.\nWhen there is mixed-type inhibition, the enzyme–substrate complex is bound by the inhibitor molecule, which prevents the reaction from happening, and increasing the substrate concentration will not remove this kind of inhibition. In a Lineweaver–Burk plot, mixed-type inhibition is characterized by a change in both the slope (Km) and the intercept of the line (Vmax).\nWith a few minor modifications, the urease inhibition experiment was carried out as described in our past research [3, 4, 5]. Briefly, DMSO was used to dissolve the synthesized conjugates (inhibitors, 250–0.49 µM) and the reference urease inhibitor (thiourea). Each falcon tube contained the respective inhibitor (20 µL), buffer (K2HPO4, 100 µL, 50 mM, pH = 6.8), and jack bean urease (20 µL); each tube was mixed well; and the mixtures were incubated for 30 min at 37 °C. Each tube received 400 µL of urea (20 mM) as a substrate, which was then incubated for 10 min at the same temperature. Afterward, each tube received 400 µL of phenol reagent and 750 µL of alkali reagent containing 0.1% active chlorine and was left at 37 °C for 50 min. Following the use of a spectrophotometer (Labdex, LX210DS, London, UK) to measure absorbance of the mixture in each tube at 595 nm, Equation (1) below was used to compute the percentage of urease inhibition: (1) % Urease inhibition=1−T/C×100 where, T and C are the absorbance of each well containing inhibitor and blank, respectively. The results are presented as mean ± SEM. Using a regression equation where 50% inhibition was seen, the IC50 values of each inhibitor were determined. Each inhibitor’s binding mechanism was tested at various doses (0–20 µM) for kinetics investigations. Urea was used as a substrate in different concentrations (0.5–4.0 mM) to determine the mode of inhibition of the inhibitors, including whether they acted as uncompetitive, mixed (non-competitive), or competitive. GraphPad PRISM 7.0 was used to create Lineweaver–Burk plots, which were then used to calculate the values of Km (app), Vmax (app), and Ki (inhibition constant)."}}, "note": "Where two headings read alike, the source gives them in different places."}
{"smiles": "Cc1cc(NS(=O)(=O)c2ccc(NC(=O)C(C)c3ccc(-c4ccccc4)c(F)c3)cc2)no1", "note": "(stereo not drawn) [Conjugate 17, 2-(2-Fluoro-[1,1′-biphenyl]-4-yl)-N-(4-(N-(5-methylisoxazol-3-yl)sulfamoyl)phenyl)propanamide]", "values": [{"measurement": "IC50", "setting": "jack bean urease", "value": "13.39 ± 0.11", "unit": "µM"}, {"measurement": "% Inhibition (urease)", "setting": "jack bean urease; jack bean urease", "value": 86.1, "unit": "%"}, {"measurement": "Ki", "setting": "urease", "value": 10.4, "unit": "µM"}, {"measurement": "Mode of Inhibition", "setting": "urease", "value": "Competitive"}, {"measurement": "Vmax (app)", "setting": "urease", "value": 1.56, "unit": "µM/min"}]}
{"smiles": "CC(C(=O)Nc1ccc(S(=O)(=O)Nc2nccs2)cc1)c1ccc(-c2ccccc2)c(F)c1", "note": "(stereo not drawn) [Conjugate 14, 2-(2-Fluoro-[1,1′-biphenyl]-4-yl)-N-(4-(N-(thiazol-2-yl)sulfamoyl)phenyl)propanamide]", "values": [{"measurement": "melting point", "value": "137 to 140", "unit": "°C"}, {"measurement": "IC50", "setting": "jack bean urease", "value": "63.4 ± 1.15", "unit": "µM"}, {"measurement": "% Inhibition (urease)", "setting": "jack bean urease; jack bean urease", "value": 60.4, "unit": "%"}, {"measurement": "urease inhibition (in words)", "setting": "jack bean urease", "value": "moderate inhibition"}]}
{"smiles": "Cc1ccnc(NS(=O)(=O)c2ccc(NC(=O)C(C)c3ccc(CC(C)C)cc3)cc2)n1", "note": "(stereo not drawn) [Conjugate 8, 2-(4-Isobutylphenyl)-N-(4-(N-(4-methylpyrimidin-2yl)sulfamoyl)phenyl)propanamide]", "values": [{"measurement": "melting point", "value": "152 to 154", "unit": "°C"}, {"measurement": "IC50", "setting": "jack bean urease", "value": "12.4 ± 0.54", "unit": "µM"}, {"measurement": "% Inhibition (urease)", "setting": "jack bean urease; jack bean urease", "value": 87.7, "unit": "%"}, {"measurement": "Ki", "setting": "urease", "value": 3.01, "unit": "µM"}, {"measurement": "Mode of Inhibition", "setting": "urease", "value": "Mixed"}, {"measurement": "Vmax (app)", "setting": "urease", "value": 3.0, "unit": "µM/min"}]}
{"smiles": "CC(C(=O)Nc1ccc(S(=O)(=O)NC(=N)N)cc1)c1ccc(-c2ccccc2)c(F)c1", "note": "(stereo not drawn) [Conjugate 19, N-(4-(N-Carbamimidoylsulfamoyl)phenyl)-2-(2-fluoro-[1,1′-biphenyl]-4-yl)propanamide]", "values": [{"measurement": "melting point", "value": "163 to 165", "unit": "°C"}, {"measurement": "IC50", "setting": "jack bean urease", "value": "33.83 ± 0.18", "unit": "µM"}, {"measurement": "% Inhibition (urease)", "setting": "jack bean urease; jack bean urease", "value": 83.8, "unit": "%"}]}
{"smiles": "Cc1cc(NS(=O)(=O)c2ccc(NC(=O)C(C)c3ccc(CC(C)C)cc3)cc2)no1", "note": "(stereo not drawn) [Conjugate 9, 2-(4-Isobutylphenyl)-N-(4-(N-(5-methylisoxazol-3-yl)sulfamoyl)phenyl)propanamide]", "values": [{"measurement": "IC50", "setting": "jack bean urease", "value": "39.9 ± 1.17", "unit": "µM"}, {"measurement": "% Inhibition (urease)", "setting": "jack bean urease; jack bean urease", "value": 76.7, "unit": "%"}, {"measurement": "urease inhibition (in words)", "setting": "jack bean urease", "value": "moderate inhibition"}]}
{"smiles": "CC(C)Cc1ccc(C(C)C(=O)Nc2ccc(S(=O)(=O)NC(=N)N)cc2)cc1", "note": "(stereo not drawn) [Conjugate 11, N-(4-(N-Carbamimidoylsulfamoyl)phenyl)-2-(4-isobutylphenyl)propanamide]", "values": [{"measurement": "melting point", "value": "138 to 139", "unit": "°C"}, {"measurement": "IC50", "setting": "jack bean urease", "value": "44.5 ± 1.41", "unit": "µM"}, {"measurement": "% Inhibition (urease)", "setting": "jack bean urease; jack bean urease", "value": 78.7, "unit": "%"}, {"measurement": "urease inhibition (in words)", "setting": "jack bean urease", "value": "moderate inhibition"}]}
{"smiles": "CC(C)Cc1ccc(C(C)C(=O)Nc2ccc(S(=O)(=O)Nc3ncccn3)cc2)cc1", "note": "(stereo not drawn) [Conjugate 7, 2-(4-Isobutylphenyl)-N-(4-(N-(pyrimidin-2-yl)sulfamoyl)phenyl)propanamide]", "values": [{"measurement": "melting point", "value": "171 to 173", "unit": "°C"}, {"measurement": "IC50", "setting": "jack bean urease", "value": "50.2 ± 1.24", "unit": "µM"}, {"measurement": "% Inhibition (urease)", "setting": "jack bean urease; jack bean urease", "value": 71.6, "unit": "%"}, {"measurement": "urease inhibition (in words)", "setting": "jack bean urease", "value": "moderate inhibition"}]}
{"smiles": "CC(C)Cc1ccc(C(C)C(=O)Nc2ccc(S(=O)(=O)Nc3nccs3)cc2)cc1", "note": "(stereo not drawn) [Conjugate 6, 2-(4-Isobutylphenyl)-N-(4-(N-(thiazol-2-yl)sulfamoyl)phenyl)propanamide]", "values": [{"measurement": "melting point", "value": "184 to 185", "unit": "°C"}, {"measurement": "IC50", "setting": "jack bean urease", "value": "9.95 ± 0.14", "unit": "µM"}, {"measurement": "% Inhibition (urease)", "setting": "jack bean urease; jack bean urease", "value": 90.6, "unit": "%"}, {"measurement": "Ki", "setting": "urease", "value": 0.17, "unit": "µM"}, {"measurement": "Mode of Inhibition", "setting": "urease", "value": "Competitive"}, {"measurement": "Vmax (app)", "setting": "urease", "value": 1.39, "unit": "µM/min"}]}
{"smiles": "Cc1noc(NS(=O)(=O)c2ccc(NC(=O)C(C)c3ccc(-c4ccccc4)c(F)c3)cc2)c1C", "note": "(stereo not drawn) [Conjugate 13, N-(4-(N-(3,4-Dimethylisoxazol-5-yl)sulfamoyl)phenyl)-2-(2-fluoro-[1,1′-biphenyl]-4-yl)propanamide]", "values": [{"measurement": "melting point", "value": "128 to 130", "unit": "°C"}, {"measurement": "IC50", "setting": "jack bean urease", "value": "35.3 ± 0.21", "unit": "µM"}, {"measurement": "% Inhibition (urease)", "setting": "jack bean urease; jack bean urease", "value": 84.6, "unit": "%"}]}
{"smiles": "CC(C(=O)Nc1ccc(S(=O)(=O)Nc2ncccn2)cc1)c1ccc(-c2ccccc2)c(F)c1", "note": "(stereo not drawn) [Conjugate 15, 2-(2-Fluoro-[1,1′-biphenyl]-4-yl)-N-(4-(N-(pyrimidin-2-yl)sulfamoyl)phenyl)propanamide]", "values": [{"measurement": "melting point", "value": "155 to 158", "unit": "°C"}, {"measurement": "IC50", "setting": "jack bean urease", "value": "16.7 ± 0.23", "unit": "µM"}, {"measurement": "% Inhibition (urease)", "setting": "jack bean urease; jack bean urease", "value": 84.1, "unit": "%"}, {"measurement": "Ki", "setting": "urease", "value": 7.95, "unit": "µM"}, {"measurement": "Mode of Inhibition", "setting": "urease", "value": "Competitive"}, {"measurement": "Vmax (app)", "setting": "urease", "value": 1.89, "unit": "µM/min"}]}
{"smiles": "Cc1noc(NS(=O)(=O)c2ccc(NC(=O)C(C)c3ccc(CC(C)C)cc3)cc2)c1C", "note": "(stereo not drawn) [Conjugate 5, N-(4-(N-(3,4-Dimethylisoxazol-5-yl)sulfamoyl)phenyl)-2-(4-isobutylphenyl)propanamide]", "values": [{"measurement": "IC50", "setting": "jack bean urease", "value": "23.3 ± 0.41", "unit": "µM"}, {"measurement": "% Inhibition (urease)", "setting": "jack bean urease; jack bean urease", "value": 84.0, "unit": "%"}]}
{"smiles": "NC(N)=S", "note": "[Thiourea, reference compound]", "values": [{"measurement": "IC50", "setting": "jack bean urease; jack bean urease, urea substrate, pH 6.8, 37 °C, mean ± SEM, read-out: IC50 (µM), Mean ± SEM", "value": "22.6 ± 0.23", "unit": "µM"}, {"measurement": "% Inhibition (urease)", "setting": "jack bean urease; jack bean urease", "value": 92.3, "unit": "%"}, {"measurement": "Mode of Inhibition", "setting": "urease", "value": "Competitive"}, {"measurement": "Ki", "setting": "urease; from secondary Lineweaver–Burk plots, read-out: Ki (inhibition constant)", "value": 18.2, "unit": "µM"}, {"measurement": "Vmax (app)", "setting": "urease", "value": 18.61, "unit": "µM/min"}, {"measurement": "Km", "setting": "urease; slope of the line (Michaelis constant) at 20 µM of inhibitor concentration, read-out: Km (app)", "value": 2180, "unit": "µM"}]}
{"smiles": "CC(=O)NS(=O)(=O)c1ccc(NC(=O)C(C)c2ccc(-c3ccccc3)c(F)c2)cc1", "note": "(stereo not drawn) [Conjugate 18, N-(4-(N-Acetylsulfamoyl)phenyl)-2-(2-fluoro-[1,1′-biphenyl]-4-yl)propanamide]", "values": [{"measurement": "melting point", "value": "187 to 190", "unit": "°C"}, {"measurement": "IC50", "setting": "jack bean urease", "value": "14.8 ± 0.16", "unit": "µM"}, {"measurement": "% Inhibition (urease)", "setting": "jack bean urease; jack bean urease", "value": 87.1, "unit": "%"}, {"measurement": "Ki", "setting": "urease", "value": 4.11, "unit": "µM"}, {"measurement": "Mode of Inhibition", "setting": "urease", "value": "Mixed"}, {"measurement": "Vmax (app)", "setting": "urease", "value": 1.02, "unit": "µM/min"}]}
{"smiles": "CC(C(=O)Nc1ccc(S(N)(=O)=O)cc1)c1ccc(-c2ccccc2)c(F)c1", "note": "(stereo not drawn) [Conjugate 12, 2-(2-Fluoro-[1,1′-biphenyl]-4-yl)-N-(4-sulfamoylphenyl)propanamide]", "values": [{"measurement": "melting point", "value": "147 to 150", "unit": "°C"}, {"measurement": "IC50", "setting": "jack bean urease", "value": "24.92 ± 0.24", "unit": "µM"}, {"measurement": "% Inhibition (urease)", "setting": "jack bean urease; jack bean urease", "value": 82.1, "unit": "%"}]}
{"smiles": "CC(C)Cc1ccc(C(C)C(=O)Nc2ccc(S(N)(=O)=O)cc2)cc1", "note": "(stereo not drawn) [Conjugate 4, 2-(4-Isobutylphenyl)-N-(4-sulfamoylphenyl)propanamide]", "values": [{"measurement": "melting point", "value": "147 to 150", "unit": "°C"}, {"measurement": "IC50", "setting": "jack bean urease", "value": "14.26 ± 0.14", "unit": "µM"}, {"measurement": "% Inhibition (urease)", "setting": "jack bean urease; jack bean urease", "value": 84.2, "unit": "%"}, {"measurement": "Ki", "setting": "urease", "value": 8.2, "unit": "µM"}, {"measurement": "Mode of Inhibition", "setting": "urease", "value": "Mixed"}, {"measurement": "Vmax (app)", "setting": "urease", "value": 3.64, "unit": "µM/min"}]}
{"smiles": "Cc1ccnc(NS(=O)(=O)c2ccc(NC(=O)C(C)c3ccc(-c4ccccc4)c(F)c3)cc2)n1", "note": "(stereo not drawn) [Conjugate 16, 2-(2-Fluoro-[1,1′-biphenyl]-4-yl)-N-(4-(N-(4-methylpyrimidin-2-yl)sulfamoyl)phenyl)propanamide]", "values": [{"measurement": "IC50", "setting": "jack bean urease", "value": "17.5 ± 0.76", "unit": "µM"}, {"measurement": "% Inhibition (urease)", "setting": "jack bean urease; jack bean urease", "value": 86.1, "unit": "%"}, {"measurement": "Ki", "setting": "urease", "value": 1.3, "unit": "µM"}, {"measurement": "Mode of Inhibition", "setting": "urease", "value": "Mixed"}, {"measurement": "Vmax (app)", "setting": "urease", "value": 1.01, "unit": "µM/min"}]}
{"smiles": "CC(=O)NS(=O)(=O)c1ccc(NC(=O)C(C)c2ccc(CC(C)C)cc2)cc1", "note": "(stereo not drawn) [Conjugate 10, N-(4-(N-Acetylsulfamoyl)phenyl)-2-(4-isobutylphenyl)propanamide]", "values": [{"measurement": "melting point", "value": "152 to 155", "unit": "°C"}, {"measurement": "IC50", "setting": "jack bean urease", "value": "10.3 ± 0.11", "unit": "µM"}, {"measurement": "% Inhibition (urease)", "setting": "jack bean urease; jack bean urease", "value": 88.9, "unit": "%"}, {"measurement": "Ki", "setting": "urease", "value": 2.62, "unit": "µM"}, {"measurement": "Mode of Inhibition", "setting": "urease", "value": "Mixed"}, {"measurement": "Vmax (app)", "setting": "urease", "value": 1.04, "unit": "µM/min"}]}
